Consider two molecules from patent US5578643A, “Protective prostaglandins for use in conjunction with chemotherapeutic agents” (Loyola University of Chicago, priority 1994, dated 1996).

The structures appear in SMILES notation.

The nature of data set [1]: Survival of mice (percent survival over 15 days) after doxorubicin, with or without prior prostaglandin. As to conditions: mouse, in vivo, ip, 0.5 mg. On the procedure: (§1) FIG. 1 is a graph illustrating percent survival of mice over 15 days as a function of the time interval (in hours) between the administration of misoprostol and the subsequent administration of doxorubicin. (The two curves represent duplicate experiments; 12 animals per experiment.)
(§2) FIG. 2 is a graph illustrating the percent survival of mice over 15 days following the administration of 0.5 mg of doxorubicin (open circles) and mice given 40 μg of misoprostol 2 hours before administration of 0.5 mg of doxorubicin (filled circles). (N=16 for each group).
(§3) FIG. 3 is a graph illustrating the percent survival of mice over 15 days following the administration of 0.75 mg of doxorubicin (open circles) and mice given 40 μg of misoprostol 2 hours before administration of 0.75 mg of doxorubicin (filled circles). (N=16 for each group).
(§4) Mortality of mice is a measure of PG-induced protection from death due to severe normal tissue injury inflicted by chemotherapy agents.
(§5) This assay was accomplished by injecting intraperitoneally (IP) separate groups of mice with a range of doses of chemotherapeutic agents. […] In some groups of mice, longevity was recorded by plotting the number of animals remaining alive (percent survival) versus time following the administration of the chemotherapeutic agent.
(§6) PG-induced protection from the toxic chemotherapeutic agents was measured by subcutaneous (SC) injection of the PG at various times prior to or after the IP administration of the chemotherapeutic agent. […] The time interval was varied from 15 minutes to 5 hours. The two curves represent two separate experiments with 20 mice in each experiment. The "0" time point is the percentage of mice that survived 15 days after administration of doxorubicin alone.

For data set [2], the system named is mice given doxorubicin (DOX). The description is as above. As to conditions: n=16. On the procedure:
as §1, §2, §3, §4, §5, §6

For data set [3], the system named is white blood cells (WBCs) in the peripheral circulation. The data set can be described thus: WBC counts and differential counts in peripheral blood of DOX treated mice. Type of data set: in vivo. Here is the method: FIG. 7 is a graph illustrating the protective effect of misoprostol (given 2 hours before doxorubicin) on WBC counts compared to the effect of doxorubicin alone on WBC counts as function of time (in days). (The numbers 1 and 2 are duplicate studies.)
Death within 15 days of DOX treatment alone is most likely associated with bone marrow injury. […] DOX, therefore, appears to not only reduce the total WBC, but has a particularly marked effect on lymphocytes.

The subject of the next data set is small intestine. The data set can be described thus: Intestinal microcolonies in DOX treated mice, with or without PGE1. As to conditions: 0.5 mg of doxorubicin; FIG. 12. It is filed as in vivo. An excerpt:
(Data are the means of 4 mice±1 SEM.)
(§7) The hair counts from skin fields of control (open bar), DOX (striped bar) and misoprostol+DOX (filled bar) treated mice are shown in FIG. 9. […] Misoprostol given before DOX increased the hair count to 213±7.8. […] Since prostaglandin receptors are not evenly distributed, protection may not be evenly distributed. PGE1 is associated with the skin (hair follicles) but not with the gut. The ability of PGE1 to protect the skin (hair follicles) and the small intestine from cell injury caused by doxorubicin was tested. […] A single dose of 0.5 mg of doxorubicin reduced this count to 43±8. Administration of 10 μg of PGE1 prior to administration of doxorubicin provided protection as indicated by the increase in the number of hairs to 111±12. […] More evidence is presented in Example 3.

For a further data set, the system named is hair follicles. The data set can be described thus: Hair count / hair loss (alopecia) caused by chemotherapeutic agents, 5 daily treatments. Type of data set: in vivo, mice. On the procedure: Panel C is a representation of a photomicrograph of an animal given 40 μg of misoprostol, 2 hours before the 0.1 mg daily dose of doxorubicin given each day for 5 days.
(Data are the means of 6 mice (2 fields/mouse)±1 SEM.)
Amount of Hair Loss as a Measure of PG-induced Protection from Alopecia caused by Chemotherapeutic Agents.
One of the side effects of chemotherapy in cancer patients is hair loss or alopecia. Studies were conducted to measure a possible protective effect of PGs from alopecia caused by chemotherapeutic agents. […] The hairs on the rumps of mice (n=4/group) were plucked to induce a growth or anagen cycle within hair follicles which continues for about 18 days. […] Control groups (n=4) received no treatment or misoprostol alone.

The subject of data set [4] is mice given graded doses of doxorubicin (DOX). The data set can be described thus: DOX dose response: dose killing 50% of the mice within 15 days, alone or after PG or WR-2721. It is filed as in vivo. Here is the method:
The open triangle is data of a group of 10 mice given WR-2721, 30 minutes before administration of 0.75 mg of doxorubicin. (The lines are computer fit spline curves through the data; n=24 per data point on each curve).
(The lines are computer fit spline curves through the data; n=8 per data point for each of the PG-treated groups and n=24 for the data points of mice treated only with doxorubicin).
It was observed that all acute deaths due to DOX treatment alone occurred before day 15 following DOX administration. Subsequently, the parameter of death within 15 days was used to investigate the DOX dose response administered IP alone or 2 hours after 40 μg of misoprostol was given subcutaneously (sc). In this study, a dose of about 0.5 mg of DOX/average 30 gram mouse, killed 50% of the DOX treated mice (see FIG. 5).
A comparison of PG-induced protection was made to that of protection by WR-2721; an agent reported to protect from some chemotherapeutic agents. […] Two other PGs representing different structural prostaglandins than misoprostol were also investigated for their effectiveness in protecting mice from mortality resulting from administration of graded doses of DOX.

Another data set concerns skin (hair follicles). The data set can be described thus: Hair count after a single dose of doxorubicin, with or without PGE1. Type of data set: in vivo, mice. As to conditions: single dose of 0.5 mg doxorubicin; control 237±5; FIG. 11. On the procedure:
FIG. 11 is a graph illustrating the number of hairs per 4.16 sq. mm of skin area in control mice, in mice that received 0.5 mg of doxorubicin or in mice that received 10 μg of PGE1 2 hours before receiving 0.5 mg of doxorubicin. (Data are the means of 6 mice (2 field/mouse)±SEM.)
as §7

The next data set deals with hair medullary cells. The data set can be described thus: Number of hair medullary cells four days after a single dose of chemotherapeutic agent, with or without misoprostol. It is filed as in vivo, CF1 mice. On the procedure:
FIG. 13 is a representation of photographs of shafts of hair showing a single line of medullary cells in control mice (Panel A) and in mice 4 days after they were given a single dose of 0.3 mg of VP-16-213 (Panel B).
Number of Hair Medullary Cells as a Measure of Protection from Injury caused by Chemotherapeutic Agents.
The shafts of hair in CF1 mice contain usually a single line of about 50±1 medullary cells. These cells are very sensitive to cytotoxic agents (see Potten, C. S., Geng, L., and Taylor, P., Hair Medullary Cell Counts: a Simple and Sensitive Indicator of Radiation Exposure. Int. J Radiat. Biol., 57:13-21, 1990). Single doses of cytotoxic chemotherapeutic agents greatly reduce the number of medullary cells which reach a nadir at 4 days after administration of the agent. This cell system has been used for the evaluation of misoprostol-induced protection from several chemotherapeutic agents.
CF1 mice had hair from an area of their rump plucked to induce anagen growth as described in Example 2 above. […] In separate groups, mice received misoprostol (40 μg/average 30 g mouse) either subcutaneously or applied topically 2 hours before each of the chemotherapeutic agents listed above. Untreated controls were used since it has been previously determined that water, or 2% EtOH in water, or phosphate buffer at pH=6.8 (the vehicles for the all agents used) had no influence on the cell counts compared to untreated controls. Twenty-five hairs from each animal of each group were dissected from Feulgen stained samples taken from the mice 4 days after treatment.
The number of medullary cells was averaged (n=4) for each treatment group and the results for all chemotherapeutic agents tested to date are presented in Table I.

Data set [5] deals with mice given 5-fluorouracil. The data set can be described thus: Survival of mice after 12.5 mg of 5-fluorouracil, with or without prior misoprostol. Type of data set: in vivo. The note with it: 40 μg misoprostol 2 hours before 12.5 mg of 5-fluorouracil; FIG. 4. On the procedure:
The toxicity of 12.5 mg of 5-fluorouracil alone to mice and the effectiveness of 40 μg of misoprostol given 2 hours prior to administration of 5-fluorouracil to protect from death due to 5-fluorouracil is shown in FIG. 4.

Turning to `COc1cccc2c1C(=O)c1c(O)c3c(c(O)c1C2=O)C[C@@](O)(C(=O)CO)C[C@@H]3O[C@H]1C[C@H](N)[C@H](O)[C@H](C)O1` [DOX, doxorubicin], the survival at 360 h in [1] was approximately 25%. The “mortality, DOX alone” value in [2] (0.75 mg of DOX IP alone, FIG. 3) is “All of the mice were dead by six days”. For the same molecule, in [3] (0.5 mg DOX/30 gram mouse, FIG. 7), the “WBCs in the peripheral circulation, DOX alone” value is “sharply reduced over 7 days following treatment”. Further, the “percentage of lymphocytes, DOX alone” value in [3] (0.5 mg of DOX, differential counts, control mice about 85%) was “less than 10%”. Also, the “number of intestinal colonies per circumference, DOX alone” value in the data set with small intestine is given as 6±0.3 intestinal colonies per circumference. Further, in the data set on hair follicles (0.1 mg DOX daily for 5 days IP, controls 248±5, FIG. 9), the “number of hairs, DOX alone” value came to 144±3 hairs per 4.42 sq. mm. In addition, the “dose of DOX that killed 50% of the mice, DOX alone” value in [4] (IP, death within 15 days, FIG. 5) is “about 0.5 mg of DOX/average 30 gram mouse”. Further, the “time of all acute deaths due to DOX treatment alone (before day)” value in data set [4] (following DOX administration) was less than 15 days. Further, in the data set with skin (hair follicles), the “number of hairs, doxorubicin alone” value was 43±8 hairs per 4.16 sq. mm. For the same molecule, in the data set with hair medullary cells (4 days after single IP dose: DOX 0.3, CTX 1, VP-16-213 0.3, ARA-C 8, HU 10, 5 FU 1.0, Methotrexate 0.2, Bleomycin 0.05, Mitomycin C 0.01, Cisplatin 0.25, Carboplatin 1.0, Taxol 0.6 mg, untreated control 51.4 ± 0.6), the “Number of Medullar Cells ± 1 SEM, chemotherapeutic agent IP alone” value is 18.3 ± 1.7.
Turning to `CCCCC(C)(O)C/C=C/[C@H]1[C@H](O)CC(=O)[C@@H]1CCCCCCC(=O)OC` (mixture of isomers) [misoprostol, (±)(16RS)-15-deoxy-16-hydroxy-16-methyl prostaglandin E1, methyl ester], in data set [2] (40 μg misoprostol 2 hours before 0.75 mg of DOX, FIG. 3), the “percent still alive by day 15, misoprostol before DOX” value is “about 85%”. Besides, the “percent survival after 15 days, misoprostol before DOX” value in [2] (40 μg misoprostol SC 2 hours before 0.5 mg of doxorubicin, FIG. 2) was found to be 100%. Further, in data set [3] (40 μg of misoprostol 2 hours before 0.5 mg of DOX, differential counts of peripheral blood), the “percentage of lymphocytes, misoprostol before DOX” value is given as “greater than 30%”. The “WBC counts, misoprostol before DOX” value in [3] (misoprostol 40 μg/30 gram mouse 2 hours before DOX (0.5 mg/30 gram mouse), FIG. 7) is given as “remained near control levels”. In the data set with hair follicles (40 μg misoprostol SC 2 hours before each daily 0.1 mg DOX, 5 days, FIG. 9), the “number of hairs, misoprostol + DOX” value worked out at 213±7.8 hairs per 4.42 sq. mm. Further, in the data set with hair follicles (40 μg misoprostol SC 2 hours before each daily 1.0 mg cytoxan, 5 days, FIG. 10), the “number of hairs, misoprostol + CTX” value is 222+5.5 hairs per 4.42 sq. mm. Also, the “DOX dose required to kill 50% of the population of mice, after misoprostol” value in data set [4] (40 μg misoprostol SC 2 hours before graded doses of DOX, death within 15 days, FIG. 5) is recorded as “about 1.0 mg of DOX/average 30 gram mouse”. The “protection of mice from death due to 5-fluorouracil” value in data set [5] is listed as “effective in protecting mice from damaging effects of 5-fluorouracil”. In addition, the “Number of Medullar Cells ± 1 SEM, misoprostol subcutaneously” value in the data set with hair medullary cells (40 μg SC 2 hrs before 5 FU (1.0 mg)) amounted to 37.4 ± 5.0; with hair medullary cells (40 μg SC 2 hrs before ARA-C (8 mg)), 40.1 ± 0.7; in the data set with hair medullary cells (40 μg SC 2 hrs before Bleomycin (0.05 mg)) it was 27.9 ± 1.2; with hair medullary cells (40 μg SC 2 hrs before CTX (1 mg)), 33.1 ± 1.3; with hair medullary cells (40 μg SC 2 hrs before Carboplatin (1.0 mg)) it was 31.2 ± 2.4; in the data set on hair medullary cells (40 μg SC 2 hrs before Cisplatin (0.25 mg)) it was 14.3 ± 0.4. The “Number of Medullar Cells ± 1 SEM, misoprostol subcutaneously” value with hair medullary cells (40 μg SC 2 hrs before DOX (0.3 mg)) is reported as 30.0 ± 1.1; in the data set on hair medullary cells (40 μg SC 2 hrs before HU (10 mg)), 38.9 ± 0.7; in the data set on hair medullary cells (40 μg SC 2 hrs before Methotrexate (0.2 mg)) it was 50.6 ± 0.6; with hair medullary cells (40 μg SC 2 hrs before Mitomycin C (0.01 mg)), 38.2 ± 1.9; with hair medullary cells (40 μg SC 2 hrs before Taxol (0.6 mg)), 26.0 ± 3.5; with hair medullary cells (40 μg SC 2 hrs before VP-16-213 (0.3 mg)) it was 34.4 ± 1.1. Moreover, the “Number of Medullar Cells ± 1 SEM, misoprostol topical” value with hair medullary cells (40 μg topical 2 hrs before ARA-C (8 mg)) came to 43.1 ± 1.7; in the data set with hair medullary cells (40 μg topical 2 hrs before Bleomycin (0.05 mg)) it was 28.1 ± 1.0; in the data set with hair medullary cells (40 μg topical 2 hrs before CTX (1 mg)), 31.5 ± 2.2; in the data set with hair medullary cells (40 μg topical 2 hrs before DOX (0.3 mg)), 27.0 ± 1.3; with hair medullary cells (40 μg topical 2 hrs before HU (10 mg)) it was 40.7 ± 1.0; in the data set on hair medullary cells (40 μg topical 2 hrs before Methotrexate (0.2 mg)), 46.7 ± 2.2. Besides, the “Number of Medullar Cells ± 1 SEM, misoprostol topical” value with hair medullary cells (40 μg topical 2 hrs before VP-16-213 (0.3 mg)) worked out at 33.0 ± 1.6. The “lack of protection of medullary cells” value in the data set with hair medullary cells (ARA-C, bleomycin, HU (misoprostol given systemically), cisplatin, carboplatin or 5-FU treated mice) is on record as “did not protect medullary cells”.
